What was measured:
Assay type in all cases: cell-based
Pyricularia oryzae [1] = assay: microbe, parasite or virus in culture; conditions: 168 h, read-out: Observed activity (%)
Botrytis cinerea = assay: Use Example No. 6: activity against gray mold Botrytis cinerea in the microtiter test (Botrci); conditions: 168 h, day 7 post-inoculation, efficacy as % of untreated control, read-out: Observed activity (%)
Pyricularia oryzae [2] = assay: microbe, parasite or virus in culture; conditions: 168 h, read-out: Observed activity (%); remark: listed apart in the source

## N#Cc1nn(-c2c(Cl)cc(C(F)(F)F)cc2Cl)c(N)c1[S+]([O-])C(F)(F)F (stereo not drawn) [fipronil]
Pyricularia oryzae [1]
  inhibition at 2 ppm: 5%

## COC(=O)N(OC)c1ccccc1COc1ccn(-c2ccc(Cl)cc2)n1 [pyraclostrobin]
Botrytis cinerea
  inhibition at 0.016 ppm: 4%
Pyricularia oryzae [2]
  inhibition at 0.001 ppm: 31%

— patent publication US20180007908A1, “Pesticidal Mixtures” (BASF SE, priority 2007, published 2018)
